Experimental data taken from US8476081B2, “Assay for evaluating affinity and specificity of ligand-albumin binding” (Janssen Pharmaceutica NV, priority 2009, dated 2013).
Like-named read-outs stand apart in the source and are kept apart here.

What was measured:
[1] = target: Human Serum Albumin (HSA) (Homo sapiens, UniProt P02768); experiment: ThermoFluor thermal shift assay with human serum albumin
Method: (§1) 1× reaction mixture of about 50 μg/mL human serum albumin, about 4 μM 1,8-ANS, about 150 mM NaCl, about 25 mM PIPES, pH 7.2, and about 0.002% Tween®-20 was prepared.
(§2) To prevent evaporation, about 1 μL of silicone oil was added to the plate using multichannel pipettors.
The plates were loaded onto a ThermoFluor® device and heated from about 25° C. to about 95° C. at a ramp-rate of about 1° C. per minute. Fluorescence was measured by continuous illumination with UV light (Hamamatsu LC6) via fiber optic and filtered through a band-pass filter of about 390±10 nm; >6 OD cutoff. Fluorescence emissions were detected by measuring light intensity using a CCD camera (Sensys, Roper Scientific) filtered to detect about 500±25 nm; >6 OD cutoff. This allows for the entire plate to be simultaneously monitored and each sample to be independently monitored. One or more images were collected at an interval of every about 0.5° C. to about 1° C. The sum of the pixel intensity at a given area of the plate was recorded vs. temperature.
(§3) The values of Tm, ΔH, yF,Tm, mF, yU,Tm and mU were calculated for each sample according to Equation 9. Further, the value of Tm over the compound concentration was used to calculate the binding constant (KD) using Equation 10b. A shift in the denaturation curve of albumin indicates whether the compound binds to albumin, and the value of KD indicates the binding strength of compounds to albumin. A shift of the fluorescence signal indicates the specificity of compounds to albumin, and the value of IC50 indicates the binding strength to the site I (Equation 11).
(§4) The compounds and 1× reaction mixture were dispensed and measured for the fluorescence value using the plate-based reader Tecan® Safire II. Then the plate was heated in a ThermoFluor® system and measured for fluorescence value and the thermal shift value. The fluorescence values were measured twice by both plate reader and ThermoFluor®. The fluorescence value obtained from ThermoFluor® was used for qualitative assessment whereas those from the plate reader was used for quantitative assessment. The value of IC50 was determined by the fluorescence obtained from the plate reader and was fit using Equation 11 described above. The value of KD was determined by the readings from ThermoFluor® and was fit using Equation 10b described above.

[2] = target: T1, Bovine Serum Albumin (BSA) (Bos taurus, UniProt P02769); experiment: ThermoFluor thermal shift assay with bovine serum albumin; format: binding
T1 construct: The above albumins were prepared using method IV of Cohn et al. (J. Am. Chem. Soc. 69: 1753-1761, 1947) and purified with 1× crystallization; purchased Sigma A-7638
T1 sequence (P02769 25-607): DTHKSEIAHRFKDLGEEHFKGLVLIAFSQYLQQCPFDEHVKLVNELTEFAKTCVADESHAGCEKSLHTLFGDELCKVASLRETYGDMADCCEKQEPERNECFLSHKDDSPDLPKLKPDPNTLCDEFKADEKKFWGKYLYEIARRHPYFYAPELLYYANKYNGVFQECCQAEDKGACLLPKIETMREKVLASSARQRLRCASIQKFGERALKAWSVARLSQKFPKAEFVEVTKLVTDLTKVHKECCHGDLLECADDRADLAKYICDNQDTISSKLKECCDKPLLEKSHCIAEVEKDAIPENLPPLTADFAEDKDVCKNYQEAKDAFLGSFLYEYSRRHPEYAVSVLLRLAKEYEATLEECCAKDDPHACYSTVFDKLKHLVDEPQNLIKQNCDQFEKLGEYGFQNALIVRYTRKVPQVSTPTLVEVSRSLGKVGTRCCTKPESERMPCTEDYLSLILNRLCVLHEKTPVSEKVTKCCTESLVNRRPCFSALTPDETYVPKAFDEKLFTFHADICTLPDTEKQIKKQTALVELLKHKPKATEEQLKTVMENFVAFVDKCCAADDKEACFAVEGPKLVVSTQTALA
Source text: (§5) To evaluate the bioavailability of a compound in various species, the compound's affinity and specificity to albumins from human, bovine, rat, and mouse were examined. […] The resulting 1× reaction mixture comprising human serum albumin, bovine serum albumin, rat serum albumin, or mouse serum albumin was used with a panel of compounds in the binding assay.

Rat Serum Albumin = target: T2, Rat Serum Albumin (Rattus norvegicus, UniProt P02770); experiment: ThermoFluor thermal shift assay with rat serum albumin; format: binding
T2 construct: The above albumins were prepared using method IV of Cohn et al. (J. Am. Chem. Soc. 69: 1753-1761, 1947) and purified with 1× crystallization; purchased Sigma A-6414
T2 sequence (P02770 25-608): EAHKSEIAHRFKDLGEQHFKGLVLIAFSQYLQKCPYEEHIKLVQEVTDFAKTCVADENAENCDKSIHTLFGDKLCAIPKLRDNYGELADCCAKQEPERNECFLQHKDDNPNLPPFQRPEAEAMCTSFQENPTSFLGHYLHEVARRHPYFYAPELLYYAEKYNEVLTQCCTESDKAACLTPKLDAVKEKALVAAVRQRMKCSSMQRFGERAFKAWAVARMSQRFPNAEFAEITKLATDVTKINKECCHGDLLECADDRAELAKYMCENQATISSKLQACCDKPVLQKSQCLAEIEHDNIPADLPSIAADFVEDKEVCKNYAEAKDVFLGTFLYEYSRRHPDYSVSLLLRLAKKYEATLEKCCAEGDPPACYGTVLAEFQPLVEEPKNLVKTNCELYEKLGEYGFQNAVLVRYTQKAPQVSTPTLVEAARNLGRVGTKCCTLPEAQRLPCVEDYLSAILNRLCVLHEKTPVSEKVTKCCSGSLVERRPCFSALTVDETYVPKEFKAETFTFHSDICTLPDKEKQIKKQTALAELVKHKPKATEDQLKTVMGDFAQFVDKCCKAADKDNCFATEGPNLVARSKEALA
Source text: as §5

[3] = target: Human Serum Albumin (HSA) site I (Homo sapiens, UniProt P02768); experiment: 1,8-ANS site-specific probe displacement (fluorescence) from HSA site I; details: for % Displacement: percent displacement of the site-specific probe 1,8-ANS at the second highest concentration of test ligand; for Fluorescent Signal: initial 1,8-ANS fluorescence as % of fluorescence without compound
Sequence of Human Serum Albumin (HSA) site I (P02768 25-609): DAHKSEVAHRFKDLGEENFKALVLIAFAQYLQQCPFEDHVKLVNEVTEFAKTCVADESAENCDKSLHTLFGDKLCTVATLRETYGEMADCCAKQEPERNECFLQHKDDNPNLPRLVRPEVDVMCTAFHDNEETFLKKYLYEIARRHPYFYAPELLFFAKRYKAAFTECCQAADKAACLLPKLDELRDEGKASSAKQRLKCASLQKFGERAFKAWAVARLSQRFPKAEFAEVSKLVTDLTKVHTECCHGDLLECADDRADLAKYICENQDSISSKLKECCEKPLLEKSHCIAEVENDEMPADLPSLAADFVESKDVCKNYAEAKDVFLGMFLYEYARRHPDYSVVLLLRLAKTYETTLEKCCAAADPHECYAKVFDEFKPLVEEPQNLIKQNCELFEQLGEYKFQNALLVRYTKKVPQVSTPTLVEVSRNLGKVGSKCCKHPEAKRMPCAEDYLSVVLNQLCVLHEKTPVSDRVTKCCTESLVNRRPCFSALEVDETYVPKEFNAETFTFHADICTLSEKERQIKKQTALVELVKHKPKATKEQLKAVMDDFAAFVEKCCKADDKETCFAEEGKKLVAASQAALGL
Source text: In addition to the thermal shift assay, the assay test plate may be utilized in a separate fluorescence measurement using a plate-based reader that is compatible with any relevant wavelengths. The preferred plate-based reader is Tecan Satire II. The displacement of site-specific probe such as 1,8-ANS from albumin site 1 by test ligand may cause a decrease in observed fluorescence that may be fit to Equation 11 to determine the value of IC50.
Additionally, the percent displacement may be determined by (y−yhigh), divided by the difference of low (y0) and high endpoints (yhigh), wherein y is determined at the second highest concentration.
as §1, §2, §3, §4

Mouse Serum Albumin = target: T3, Mouse Serum Albumin (Mus musculus, UniProt P07724); experiment: ThermoFluor thermal shift assay with mouse serum albumin; format: binding
T3 construct: The above albumins were prepared using method IV of Cohn et al. (J. Am. Chem. Soc. 69: 1753-1761, 1947) and purified with 1× crystallization; purchased Sigma A-3559
T3 sequence (P07724 25-608): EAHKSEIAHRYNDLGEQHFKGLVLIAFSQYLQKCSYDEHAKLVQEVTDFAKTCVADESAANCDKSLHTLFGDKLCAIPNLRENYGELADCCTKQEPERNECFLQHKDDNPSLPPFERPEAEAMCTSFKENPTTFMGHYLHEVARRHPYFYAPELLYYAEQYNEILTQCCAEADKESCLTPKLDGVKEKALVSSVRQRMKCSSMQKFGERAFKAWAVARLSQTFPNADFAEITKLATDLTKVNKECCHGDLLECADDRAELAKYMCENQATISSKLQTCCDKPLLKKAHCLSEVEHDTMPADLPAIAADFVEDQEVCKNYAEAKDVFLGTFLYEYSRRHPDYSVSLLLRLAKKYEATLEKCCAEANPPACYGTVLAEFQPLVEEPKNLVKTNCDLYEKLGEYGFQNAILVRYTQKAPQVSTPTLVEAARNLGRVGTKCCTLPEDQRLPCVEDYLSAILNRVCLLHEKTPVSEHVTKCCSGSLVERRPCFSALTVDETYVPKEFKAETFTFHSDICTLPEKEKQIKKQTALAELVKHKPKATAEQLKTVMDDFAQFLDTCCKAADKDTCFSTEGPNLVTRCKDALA
Source text: as §5

HSA = HSA (Homo sapiens, UniProt P02768); details: binding site on HSA from previous reports; cited from earlier work
Sequence of HSA (P02768 25-609): as the sequence (P02768 25-609) above

[4] = Human Albumin (KD), Example 4, Table 3
[5] = classified from KD versus IC50 and % displacement of 1,8-ANS
[6] = HSA - KD, Example 3, Table 2, ThermoFluor, Equation 10b

Sequence of Human Serum Albumin (HSA) (P02768 25-609): as above

C=CC1=C(C)/C(=C/c2[nH]c(Cc3[nH]c(/C=C4\NC(=O)C(C)=C4C=C)c(C)c3CCC(=O)O)c(CCC(=O)O)c2C)NC1=O [Bilirubin, bilirubin]
Kd [1, 4]: 55.7 µM
Kd ([2]; Example 4, Table 3): 85.4 µM
Kd (Rat Serum Albumin; Example 4, Table 3): > 120 µM
% Displacement [3]: (11) %
Kd (Mouse Serum Albumin; Example 4, Table 3): > 120 µM

C[C@]12CCC(=O)C=C1C=C[C@@H]1[C@@H]2CC[C@@]2(C)[C@H]1CC[C@@]2(O)CCC(=O)O [Canrenoate, canrenoate]
Kd [1, 4]: 39.5 µM
Type of HSA Binding Interaction [1, 5]: Type 4
Kd ([2]; Example 4, Table 3): > 62.5 µM
Kd (Rat Serum Albumin; Example 4, Table 3): > 62.5 µM
% Displacement [3]: (33) %
Kd (Mouse Serum Albumin; Example 4, Table 3): > 62.5 µM
Reported Binding Site (HSA): Site 1

CC(C(=O)O)c1ccc2c(c1)[nH]c1ccc(Cl)cc12 (centres unmarked) [Carprofen, carprofen]
Kd [1, 6]: 2.1 µM
Kd [1, 4]: 2.1 µM
Type of HSA Binding Interaction [1, 5]: Type 3
Kd ([2]; Example 4, Table 3): 2.91 µM
Kd (Rat Serum Albumin; Example 4, Table 3): 1.53 µM
IC50 [3]: 8.39 µM
% Displacement [3]: (87) %
Kd (Mouse Serum Albumin; Example 4, Table 3): 1.09 µM
Reported Binding Site (HSA): Site 2

NS(=O)(=O)c1cc2c(cc1Cl)N=CNS2(=O)=O [Chlorothiazide, chlorothiazide]
Kd [1, 4]: > 62.5 µM
Type of HSA Binding Interaction [1, 5]: Type 4
Kd ([2]; Example 4, Table 3): > 62.5 µM
Kd (Rat Serum Albumin; Example 4, Table 3): > 62.5 µM
% Displacement [3]: (12) %
Kd (Mouse Serum Albumin; Example 4, Table 3): > 62.5 µM
Reported Binding Site (HSA): Site 2

CCCNC(=O)NS(=O)(=O)c1ccc(Cl)cc1 [Chlorpropamide, chlorpropamide]
Kd [1, 6]: 82 µM
Kd [1, 4]: 34.7 µM
Type of HSA Binding Interaction [1, 5]: Type 4
Kd ([2]; Example 4, Table 3): 41.7 µM
Kd (Rat Serum Albumin; Example 4, Table 3): 29.6 µM
% Displacement [3]: (20) %
Kd (Mouse Serum Albumin; Example 4, Table 3): 110 µM
Reported Binding Site (HSA): Site 1

CCOC(=O)C(C)(C)Oc1ccc(Cl)cc1 [Clofibrate, clofibrate]
Kd [1, 4]: > 62.5 µM
Kd ([2]; Example 4, Table 3): > 62.5 µM
Kd (Rat Serum Albumin; Example 4, Table 3): > 62.5 µM
% Displacement [3]: (10) %
Kd (Mouse Serum Albumin; Example 4, Table 3): > 62.5 µM

CC(C(=O)O)c1ccc(-c2ccccc2)c(F)c1 (centres unmarked) [Flurbiprofen, flurbiprofen]
Kd [1, 6]: 2.1 µM
Kd [1, 4]: 2.1 µM
Kd ([1]; KD, Example 2, Table 1, from Tm over compound concentration (Equation 10b)): 2.7 µM
Type of HSA Binding Interaction [1, 5]: Type 3
HSA Tm ([1]; compound 0.244 μM): 74.4 °C
HSA Tm ([1]; compound 0.488 μM): 74.1 °C
HSA Tm ([1]; compound 0.977 μM): 74.3 °C
HSA Tm ([1]; compound 1.95 μM): 74.4 °C
HSA Tm ([1]; compound 3.91 μM): 75.0 °C
HSA Tm ([1]; compound 7.81 μM): 75.1 °C
HSA Tm ([1]; compound 15.6 μM): 75.7 °C
HSA Tm ([1]; compound 31.3 μM): 76.1 °C
HSA Tm ([1]; compound 62.5 μM): 76.8 °C
HSA Tm ([1]; compound 125 μM): 78.2 °C
HSA Tm ([1]; compound 250 μM): 80.2 °C
Kd ([2]; Example 4, Table 3): 1.88 µM
Kd (Rat Serum Albumin; Example 4, Table 3): 2.93 µM
IC50 [3]: 154 µM
Binding to site I of albumin as indicated by 1,8-ANS fluorescence ([3]; Example 2, dose-dependent change of initial fluorescence): does not bind to site I
Fluorescent Signal ([3]; compound 0.244 μM): 110%
Fluorescent Signal ([3]; compound 0.488 μM): 105%
Fluorescent Signal ([3]; compound 0.977 μM): 102%
Fluorescent Signal ([3]; compound 1.95 μM): 104%
Fluorescent Signal ([3]; compound 3.91 μM): 118%
Fluorescent Signal ([3]; compound 7.81 μM): 106%
Fluorescent Signal ([3]; compound 15.6 μM): 111%
Fluorescent Signal ([3]; compound 31.3 μM): 108%
Fluorescent Signal ([3]; compound 62.5 μM): 101%
Fluorescent Signal ([3]; compound 125 μM): 109%
Fluorescent Signal ([3]; compound 250 μM): 105%
% Displacement [3]: (47) %
Kd (Mouse Serum Albumin; Example 4, Table 3): 3.79 µM
Reported Binding Site (HSA): Site 2

CCC(Cc1c(I)cc(I)c(N)c1I)C(=O)O (centres unmarked) [Iodopanoate, iodopanoate]
Kd [1]: 0.633 µM
Type of HSA Binding Interaction [1, 5]: Type 3
Kd ([2]; Example 4, Table 3): 1.3 µM
Kd (Rat Serum Albumin; Example 4, Table 3): 0.96 µM
IC50 [3]: 7.45 µM
% Displacement [3]: (83) %
Kd (Mouse Serum Albumin; Example 4, Table 3): 0.758 µM
Reported Binding Site (HSA): Site 2

N[C@@H](Cc1c[nH]c2ccccc12)C(=O)O [L-Tryptophan, L-tryptophan]
Type of HSA Binding Interaction [1]: Type 5
Kd ([1]; Human Albumin (KD)): > 62.5 µM
Kd [2]: > 62.5 µM
Kd (Rat Serum Albumin): > 62.5 µM
Kd (Mouse Serum Albumin): > 62.5 µM
Reported Binding Site (HSA): Multiple sites

c1ccc2c(c1)[nH]c1cnccc12 [Norharmane, norharmane]
Type of HSA Binding Interaction [1]: Type 5
Kd [1, 6]: 17.6 µM
Kd [1, 4]: 17.6 µM
Kd ([2]; Example 4, Table 3): > 62.5 µM
Kd (Rat Serum Albumin; Example 4, Table 3): > 62.5 µM
Kd (Mouse Serum Albumin; Example 4, Table 3): > 62.5 µM
Reported Binding Site (HSA): Site 2

O=c1c(O)c(-c2ccc(O)c(O)c2)oc2cc(O)cc(O)c12 [Quercetin, quercetin]
Kd [1, 6]: 7.9 µM
Kd [1, 4]: > 62.5 µM
Type of HSA Binding Interaction [1, 5]: Type 1
Kd (Rat Serum Albumin; Example 4, Table 3): > 62.5 µM
IC50 [3]: 25 µM
% Displacement [3]: (51) %
% Displacement ([3]; listed as quercetin): about 51%
Kd (Mouse Serum Albumin; Example 4, Table 3): > 62.5 µM
Reported Binding Site (HSA): Site 1

CN1C(C(=O)Nc2ccccn2)=C(O)c2sccc2S1(=O)=O [Tenoxicam, tenoxicam]
Kd [1, 6]: 13 µM
Kd [1, 4]: 13 µM
Kd ([2]; Example 4, Table 3): > 62.5 µM
Kd (Rat Serum Albumin; Example 4, Table 3): 33.8 µM
IC50 [3]: 35.5 µM
% Displacement [3]: (84) %
Kd (Mouse Serum Albumin; Example 4, Table 3): > 62.5 µM

CCCC(CCC)C(=O)O [Valproate, valproate]
Kd [1, 4]: > 62.5 µM
Kd ([2]; Example 4, Table 3): > 62.5 µM
Kd (Rat Serum Albumin; Example 4, Table 3): > 62.5 µM
% Displacement [3]: (31) %
Kd (Mouse Serum Albumin; Example 4, Table 3): > 62.5 µM
